Experimental data from US5668165A, “Small molecule inhibition of RNA/ligand binding” (Scriptgen Pharmaceuticals, Inc., priority 1995, dated 1997).

How the values were obtained:
[1] = target: T1, binding of Oct-1 to the HSV ICPO octamer binding site (Homo sapiens, UniProt P14859); assay: Oct-1 DNA binding, gel mobility shift assay; conditions: 100 μM
T1 sequence (P14859 1-743): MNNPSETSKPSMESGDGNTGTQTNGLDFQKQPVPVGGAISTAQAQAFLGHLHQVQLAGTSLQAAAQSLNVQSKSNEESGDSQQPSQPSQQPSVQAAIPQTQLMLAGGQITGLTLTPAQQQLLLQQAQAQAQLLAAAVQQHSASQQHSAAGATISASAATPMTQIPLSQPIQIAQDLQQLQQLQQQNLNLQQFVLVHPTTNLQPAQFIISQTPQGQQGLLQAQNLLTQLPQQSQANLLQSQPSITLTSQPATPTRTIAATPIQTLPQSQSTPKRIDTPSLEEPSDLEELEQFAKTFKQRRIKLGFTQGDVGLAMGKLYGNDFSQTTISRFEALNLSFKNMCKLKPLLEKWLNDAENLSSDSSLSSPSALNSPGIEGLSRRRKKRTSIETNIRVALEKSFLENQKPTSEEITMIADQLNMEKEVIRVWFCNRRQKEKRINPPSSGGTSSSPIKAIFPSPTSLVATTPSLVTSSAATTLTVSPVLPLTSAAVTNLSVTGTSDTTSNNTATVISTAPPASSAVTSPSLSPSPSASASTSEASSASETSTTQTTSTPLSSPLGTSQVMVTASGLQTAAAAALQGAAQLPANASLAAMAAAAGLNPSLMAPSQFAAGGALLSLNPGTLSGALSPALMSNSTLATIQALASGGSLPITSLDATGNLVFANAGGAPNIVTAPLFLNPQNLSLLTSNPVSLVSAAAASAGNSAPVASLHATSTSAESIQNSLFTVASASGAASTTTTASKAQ
Description: In these studies, the DNA binding activities of two eukaryotic transcription factors, Oct-1 and ATF-2, were analyzed using a gel mobility shift assay. Purified Oct-1 was inculcated in the absence or presence of 100 μM neomycin B with a ^32 P-labelled 70-nt DNA probe containing an HSV ICPO octamer binding site (Stern and Her, Genes and Development, 5:2555-2566 (1991)). Additionally, the effect of 100 μM neomycin B on the binding of ATF-2 to a 35-nt DNA probe homologous to nucleotides -251 to -232 of the HTLV-1 LTR was analyzed.

67-nt RRE RNA = assay: Chemical footprinting (DMS/kethoxal) of the RRE; assay type: binding, HIV; conditions: 0.1, 1.0 and 10 μM; DMS or kethoxal
Description: The experiments described below were performed to determine whether or not neomycin B complexes directly with the RRE and thus blocks Rev binding. To this end, chemical footprinting experiments were performed. The 67-nt RRE RNA was incubated alone, with Rev, or with increasing concentrations of neomycin B, tobramycin, or kanamycin A, (0.1, 1.0 and 10 μM). The incubation mixtures were then treated with either dimethyl sulfate (DMS), which methylates adenosine at N1 and cytosine at N3, or with kethoxal, which modifies N1 and N2 of guanosine. Modification of specific bases was detected by primer extension. Under these conditions, DMS and kethoxal are single strand-specific, and thus the modification pattern of RNA alone provides an indication of secondary structure.

Rev binding to the RRE = assay: Rev competition with neomycin B for binding to the RRE; design: species or system HIV; conditions: 100 μM drug
Description: A prediction of this hypothesis is that inhibition could be overcome by high concentrations of Rev. […] However, as the amount of Rev was increased (i.e., to 10-20 ng), RNA binding was restored. The combined results of the experiments described in Examples 5 and 6 indicate that inhibition by neomycin B of Rev binding to the RRE occurs by a competitive mechanism.

[2] = system: Rev-RRE interaction (splicing of RRE-containing pre-mRNA); assay: Rev function in vitro: Rev-mediated repression of splicing; assay type: biochemical, HIV; conditions: RRE-containing pre-mRNA, Rev derivative
Description: The experiments described above measured the ability of 2-DOS antibiotics to interfere with binding of purified Rev to RNA. […] This hypothesis was tested by analyzing Rev function in vitro. In this assay, inhibition of splicing requires both a Rev derivative that can bind RNA, as well as a pre-mRNA containing the RRE. Thus, splicing repression is dependent upon the Rev-RRE interaction. Because neomycin B inhibited Rev binding, it was believed that the drug would reverse splicing repression.

[3] = system: cytomegalovirus (CMV)-CAT reporter; assay: CMV-CAT reporter expression; assay type: cell-based; conditions: comparable concentrations
Description: (§1) First, at all concentrations of antibiotics tested, cellular viability and growth were normal, and total cellular protein synthesis (as monitored by incorporation of [^35 S]methionine into protein) was not inhibited. […] Thus, inhibition of Rev function is not due to interference with CAT gene expression at the transcriptional or posttranscriptional level. The failure to inhibit Tat is particularly relevant, because transcription activation involves an RNA-protein interaction between Tat and trans-acting responsive sequences.

[4] = system: HIV Tat-mediated activation of an HIV LTR-CAT reporter gene; assay: HIV Tat-mediated activation of HIV LTR-CAT reporter; assay type: cell-based; conditions: comparable concentrations
Description: as §1

in vitro = assay type: cell-based; conditions: human; U1 cells, all concentrations (0-2.5 mM); read-out: cellular growth, of the untreated control
Group I introns = conditions: von Ahsen et al. 1992; cited from earlier work

For `NC[C@@H]1O[C@H](O[C@H]2[C@@H](O)[C@H](O[C@@H]3[C@@H](O)[C@H](N)C[C@H](N)[C@H]3O[C@H]3O[C@H](CN)[C@@H](O)[C@H](O)[C@H]3N)O[C@@H]2CO)[C@H](N)[C@@H](O)[C@@H]1O` [neomycin B], the “binding of Oct-1 to the HSV ICPO octamer binding site” value [1] was “unaffected”, the “protection of the RRE from chemical modification” value (67-nt RRE RNA) was “strongly protected residues 46-48” and the “Rev binding at the lowest protein amounts” value (Rev binding to the RRE; 1.3-2 ng Rev) was “completely inhibited”. The “RNA binding at increased amount of Rev” value (Rev binding to the RRE; 10-20 ng Rev) was “restored”, the “concentration that counteracted the Rev-mediated repression of splicing” value [2] was 1.0 to 2.5 µM and the “expression of a cytomegalovirus (CMV)-CAT reporter” value [3] was “did not inhibit”. The “HIV Tat-mediated activation of an HIV LTR-CAT reporter gene” value [4] was “did not inhibit”, the activity (in vitro) was 94 to 108% and the “self-splicing of Group I introns in vitro” value (Group I introns) was “effectively inhibit”.
